# Reference: ChEMBL document CHEMBL4431326, “Tumor Targeting with Novel 6-Substituted Pyrrolo [2,3-d] Pyrimidine Antifolates with Heteroatom Bridge Substitutions via Cellular Uptake by Folate Receptor α and the Proton-Coupled Folate Transporter and Inhibition of de Novo Purine Nucleotide Biosynthesis” (J Med Chem, 2016)
# Activity calls are given as the source filed them. The calls are words filed in the database; no cut-off is given here.
# Biological target: Folate receptor alpha (Homo sapiens) (UniProt P15328)
# Assay: Displacement of [3H]folic acid from human FR-alpha receptor expressed in Chinese hamster RT16 cells measured after 15 mins relative to folic acid
# Assay type: cell-based
# Set-up: concentration or dose not given beside the values
# Settings: not given
# Chain of Folate receptor alpha (Homo sapiens) (P15328 25-234 limits assumed): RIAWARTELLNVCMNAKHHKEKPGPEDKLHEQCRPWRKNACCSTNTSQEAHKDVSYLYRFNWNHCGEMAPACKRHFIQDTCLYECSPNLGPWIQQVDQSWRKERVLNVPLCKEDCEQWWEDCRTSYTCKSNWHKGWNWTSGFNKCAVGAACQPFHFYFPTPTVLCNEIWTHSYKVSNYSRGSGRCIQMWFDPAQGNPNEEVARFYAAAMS
row,SMILES,inhibition [%]
1,CC(=O)N(CCc1cc2c(=O)[nH]c(N)nc2[nH]1)c1ccc(C(=O)N[C@@H](CCC(=O)O)C(=O)O)cc1,< 15
2,Nc1nc2[nH]c(CCSc3ccc(C(=O)N[C@@H](CCC(=O)O)C(=O)O)cc3)cc2c(=O)[nH]1,60 to 110
3,Nc1nc2[nH]c(CCN(C=O)c3ccc(C(=O)N[C@@H](CCC(=O)O)C(=O)O)cc3)cc2c(=O)[nH]1,< 15

# Biological target: T1, GAR transformylase/AICAR transformylase (Homo sapiens) (UniProt P31939+P22102)
# Assay: Inhibition of GARFTase/AICARFTase in human KB cells expressing RFC/FR-alpha/PCFT assessed as cell growth inhibition measured after 96 hrs in presence of 10 uM thymidine by Cell-Titer Blue fluorescence analysis
# Assay type: cell-based
# Settings: not given
# T1 sequence (P31939 whole entry, looked up, one chain of several): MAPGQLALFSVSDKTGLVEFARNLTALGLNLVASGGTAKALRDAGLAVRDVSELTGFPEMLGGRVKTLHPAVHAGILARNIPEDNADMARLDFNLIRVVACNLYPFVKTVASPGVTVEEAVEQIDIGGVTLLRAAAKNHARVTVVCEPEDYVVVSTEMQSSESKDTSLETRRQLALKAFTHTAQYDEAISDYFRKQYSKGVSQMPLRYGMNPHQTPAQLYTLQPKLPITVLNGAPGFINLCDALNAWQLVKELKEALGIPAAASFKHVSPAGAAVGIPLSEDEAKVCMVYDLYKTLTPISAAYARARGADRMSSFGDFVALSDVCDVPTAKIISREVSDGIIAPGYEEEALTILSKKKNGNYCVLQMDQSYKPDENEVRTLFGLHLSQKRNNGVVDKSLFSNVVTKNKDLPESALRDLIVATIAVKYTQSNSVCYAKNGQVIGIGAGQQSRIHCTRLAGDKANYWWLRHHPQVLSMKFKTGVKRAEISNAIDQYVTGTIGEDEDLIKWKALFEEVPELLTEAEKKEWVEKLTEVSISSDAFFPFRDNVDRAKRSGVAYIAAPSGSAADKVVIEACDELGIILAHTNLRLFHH
row,SMILES,inhibition
1,CC(=O)N(CCc1cc2c(=O)[nH]c(N)nc2[nH]1)c1ccc(C(=O)N[C@@H](CCC(=O)O)C(=O)O)cc1,Active
2,Nc1nc2[nH]c(CCSc3ccc(C(=O)N[C@@H](CCC(=O)O)C(=O)O)cc3)cc2c(=O)[nH]1,Active
3,Nc1nc2[nH]c(CCN(C=O)c3ccc(C(=O)N[C@@H](CCC(=O)O)C(=O)O)cc3)cc2c(=O)[nH]1,Active

# Biological target: T2, Proton-coupled folate transporter (Homo sapiens) (UniProt Q96NT5)
# T2 sequence (whole entry): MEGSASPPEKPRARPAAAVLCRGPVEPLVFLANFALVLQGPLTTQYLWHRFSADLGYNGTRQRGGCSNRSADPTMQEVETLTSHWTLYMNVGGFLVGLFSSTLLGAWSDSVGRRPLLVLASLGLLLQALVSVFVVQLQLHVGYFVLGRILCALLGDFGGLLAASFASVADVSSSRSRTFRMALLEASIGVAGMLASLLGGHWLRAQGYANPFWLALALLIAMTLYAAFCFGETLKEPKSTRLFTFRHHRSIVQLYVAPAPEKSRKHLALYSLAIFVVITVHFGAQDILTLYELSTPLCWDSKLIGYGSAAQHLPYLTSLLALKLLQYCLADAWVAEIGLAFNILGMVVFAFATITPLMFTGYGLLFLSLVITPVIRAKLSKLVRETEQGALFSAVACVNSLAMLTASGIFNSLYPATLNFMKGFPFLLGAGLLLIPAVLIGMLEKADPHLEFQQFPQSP
# Assay: Inhibition of [3H]MTX uptake at human PCFT expressed in Chinese hamster R2/PCFT4 cells at 1 uM and pH 5.5 measured after 5 mins
# Assay type: cell-based
# Settings: not given
row,SMILES,inhibition [%]
1,CC(=O)N(CCc1cc2c(=O)[nH]c(N)nc2[nH]1)c1ccc(C(=O)N[C@@H](CCC(=O)O)C(=O)O)cc1,30 to 60
2,Nc1nc2[nH]c(CCSc3ccc(C(=O)N[C@@H](CCC(=O)O)C(=O)O)cc3)cc2c(=O)[nH]1,30 to 60
3,Nc1nc2[nH]c(CCN(C=O)c3ccc(C(=O)N[C@@H](CCC(=O)O)C(=O)O)cc3)cc2c(=O)[nH]1,30 to 60

# Test system: KB
# Assay: Antiproliferative activity against human KB cells expressing human RFC/FR-alpha/PCFT assessed as reduction in cell viability measured after 96 hrs by Cell-Titer Blue fluorescence analysis
# Assay type: functional, cell-based
# Settings: not given
row,SMILES,IC50 [nM]
1,CC(=O)N(CCc1cc2c(=O)[nH]c(N)nc2[nH]1)c1ccc(C(=O)N[C@@H](CCC(=O)O)C(=O)O)cc1,2.57
2,Nc1nc2[nH]c(CCSc3ccc(C(=O)N[C@@H](CCC(=O)O)C(=O)O)cc3)cc2c(=O)[nH]1,1.66
3,Nc1nc2[nH]c(CCN(C=O)c3ccc(C(=O)N[C@@H](CCC(=O)O)C(=O)O)cc3)cc2c(=O)[nH]1,2.09

# Biological target: T3, Proton-coupled folate transporter (Homo sapiens, UniProt Q96NT5)
# T3 sequence (Q96NT5 whole entry): T2 sequence (whole entry)
# Assay: Inhibition of [3H]MTX uptake at human PCFT expressed in Chinese hamster R2/PCFT4 cells at pH 5.5 measured after 5 mins by Dixon plot analysis
# Assay type: cell-based
# Settings: not given
row,SMILES,Ki [nM]
1,CC(=O)N(CCc1cc2c(=O)[nH]c(N)nc2[nH]1)c1ccc(C(=O)N[C@@H](CCC(=O)O)C(=O)O)cc1,1680
2,Nc1nc2[nH]c(CCSc3ccc(C(=O)N[C@@H](CCC(=O)O)C(=O)O)cc3)cc2c(=O)[nH]1,1480
3,Nc1nc2[nH]c(CCN(C=O)c3ccc(C(=O)N[C@@H](CCC(=O)O)C(=O)O)cc3)cc2c(=O)[nH]1,730

# Biological target: T4, Trifunctional purine biosynthetic protein adenosine-3 (Homo sapiens, UniProt P22102)
# T4 sequence (P22102 whole entry): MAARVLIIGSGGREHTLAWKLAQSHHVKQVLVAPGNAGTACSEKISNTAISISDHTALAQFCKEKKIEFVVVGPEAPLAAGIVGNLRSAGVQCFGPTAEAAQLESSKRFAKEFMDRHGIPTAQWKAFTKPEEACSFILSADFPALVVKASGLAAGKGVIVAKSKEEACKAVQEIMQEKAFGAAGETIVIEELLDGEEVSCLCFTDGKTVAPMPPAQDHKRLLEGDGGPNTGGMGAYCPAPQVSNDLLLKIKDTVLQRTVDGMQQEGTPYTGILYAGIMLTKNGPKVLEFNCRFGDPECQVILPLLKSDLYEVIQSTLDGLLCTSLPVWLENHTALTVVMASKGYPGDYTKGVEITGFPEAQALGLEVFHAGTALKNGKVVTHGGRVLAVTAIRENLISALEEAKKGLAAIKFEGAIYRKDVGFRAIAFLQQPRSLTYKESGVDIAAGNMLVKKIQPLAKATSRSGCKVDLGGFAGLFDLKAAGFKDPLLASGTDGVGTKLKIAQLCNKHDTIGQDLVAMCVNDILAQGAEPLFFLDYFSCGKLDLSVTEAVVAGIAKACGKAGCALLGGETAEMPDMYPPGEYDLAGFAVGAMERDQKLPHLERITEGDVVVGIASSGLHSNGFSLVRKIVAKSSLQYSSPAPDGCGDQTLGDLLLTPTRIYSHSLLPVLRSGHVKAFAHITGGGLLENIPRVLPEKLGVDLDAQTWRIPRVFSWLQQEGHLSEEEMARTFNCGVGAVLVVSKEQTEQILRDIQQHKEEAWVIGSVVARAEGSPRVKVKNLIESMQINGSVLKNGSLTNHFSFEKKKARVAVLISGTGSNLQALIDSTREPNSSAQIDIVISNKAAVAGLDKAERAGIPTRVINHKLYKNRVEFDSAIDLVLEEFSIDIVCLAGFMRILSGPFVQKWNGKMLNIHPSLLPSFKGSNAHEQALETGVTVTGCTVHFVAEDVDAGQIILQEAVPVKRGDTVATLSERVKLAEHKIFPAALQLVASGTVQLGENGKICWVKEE
# Assay: Inhibition of GARFTase in human KB cells expressing RFC/FR-alpha/PCFT assessed as decrease in incorporation of [14C(U)]-glycine into [14C]formyl GAR incubated for 1 hr followed by addition of [14C(U)]-glycine measured after 16 hrs in presence of azaserine
# Assay type: cell-based
# Settings: not given
row,SMILES,IC50 [nM]
1,CC(=O)N(CCc1cc2c(=O)[nH]c(N)nc2[nH]1)c1ccc(C(=O)N[C@@H](CCC(=O)O)C(=O)O)cc1,5.58
2,Nc1nc2[nH]c(CCSc3ccc(C(=O)N[C@@H](CCC(=O)O)C(=O)O)cc3)cc2c(=O)[nH]1,5.25
3,Nc1nc2[nH]c(CCN(C=O)c3ccc(C(=O)N[C@@H](CCC(=O)O)C(=O)O)cc3)cc2c(=O)[nH]1,2.11

# Biological target: T2, Proton-coupled folate transporter (Homo sapiens)
# Assay: Inhibition of [3H]MTX uptake at human PCFT expressed in Chinese hamster R2/PCFT4 cells at 10 uM and pH 6.8 measured after 5 mins
# Assay type: cell-based
# Settings: not given
row,SMILES,inhibition
1,CC(=O)N(CCc1cc2c(=O)[nH]c(N)nc2[nH]1)c1ccc(C(=O)N[C@@H](CCC(=O)O)C(=O)O)cc1,Active
2,Nc1nc2[nH]c(CCSc3ccc(C(=O)N[C@@H](CCC(=O)O)C(=O)O)cc3)cc2c(=O)[nH]1,Active
3,Nc1nc2[nH]c(CCN(C=O)c3ccc(C(=O)N[C@@H](CCC(=O)O)C(=O)O)cc3)cc2c(=O)[nH]1,Active

# Test system: KB
# Assay: Antiproliferative activity against human KB cells expressing human RFC/FR-alpha/PCFT assessed as reduction in cell viability measured after 96 hrs in presence of folic acid by Cell-Titer Blue fluorescence analysis
# Assay type: functional, cell-based
# Settings: not given
row,SMILES,IC50 [nM]
1,CC(=O)N(CCc1cc2c(=O)[nH]c(N)nc2[nH]1)c1ccc(C(=O)N[C@@H](CCC(=O)O)C(=O)O)cc1,> 1000
2,Nc1nc2[nH]c(CCSc3ccc(C(=O)N[C@@H](CCC(=O)O)C(=O)O)cc3)cc2c(=O)[nH]1,> 1000
3,Nc1nc2[nH]c(CCN(C=O)c3ccc(C(=O)N[C@@H](CCC(=O)O)C(=O)O)cc3)cc2c(=O)[nH]1,> 1000

# Test system: not listed separately
# Assay: Cytotoxicity in PCFT-null Chinese hamster R2 cells assessed as reduction in cell viability measured after 96 hrs by Cell-Titer Blue fluorescence analysis
# Assay type: cell-based
# Settings: Cricetulus griseus, R2, 96 h
row,SMILES,IC50 [nM]
1,CC(=O)N(CCc1cc2c(=O)[nH]c(N)nc2[nH]1)c1ccc(C(=O)N[C@@H](CCC(=O)O)C(=O)O)cc1,> 1000
2,Nc1nc2[nH]c(CCSc3ccc(C(=O)N[C@@H](CCC(=O)O)C(=O)O)cc3)cc2c(=O)[nH]1,> 1000
3,Nc1nc2[nH]c(CCN(C=O)c3ccc(C(=O)N[C@@H](CCC(=O)O)C(=O)O)cc3)cc2c(=O)[nH]1,> 1000

# Test system: not listed separately
# Assay: Cytotoxicity in RFC-null Chinese hamster R2 cells assessed as reduction in cell viability measured after 96 hrs by Cell-Titer Blue fluorescence analysis
# Assay type: cell-based
# Settings: Cricetulus griseus, R2, 96 h
row,SMILES,IC50 [nM]
1,CC(=O)N(CCc1cc2c(=O)[nH]c(N)nc2[nH]1)c1ccc(C(=O)N[C@@H](CCC(=O)O)C(=O)O)cc1,> 1000
2,Nc1nc2[nH]c(CCSc3ccc(C(=O)N[C@@H](CCC(=O)O)C(=O)O)cc3)cc2c(=O)[nH]1,> 1000
3,Nc1nc2[nH]c(CCN(C=O)c3ccc(C(=O)N[C@@H](CCC(=O)O)C(=O)O)cc3)cc2c(=O)[nH]1,> 1000

# Biological target: Folate receptor beta (Homo sapiens) (UniProt P14207)
# Assay: Displacement of [3H]folic acid from human FR-beta receptor expressed in Chinese hamster D4 cells measured after 15 mins relative to folic acid
# Assay type: cell-based
# Settings: not given
# Chain of Folate receptor beta (Homo sapiens) (P14207 17-230 limits assumed): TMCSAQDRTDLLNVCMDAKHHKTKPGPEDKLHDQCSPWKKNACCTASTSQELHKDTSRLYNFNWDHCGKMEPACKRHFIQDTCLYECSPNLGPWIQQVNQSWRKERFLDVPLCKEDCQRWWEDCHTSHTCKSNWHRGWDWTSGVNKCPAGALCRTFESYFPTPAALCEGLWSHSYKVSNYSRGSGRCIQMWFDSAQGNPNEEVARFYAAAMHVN
row,SMILES,inhibition [%]
1,Nc1nc2[nH]c(CCSc3ccc(C(=O)N[C@@H](CCC(=O)O)C(=O)O)cc3)cc2c(=O)[nH]1,60 to 110

# Biological target: Bifunctional purine biosynthesis protein ATIC (Homo sapiens) (UniProt P31939)
# Assay: Inhibition of AICARFTase in human KB cells expressing RFC/FR-alpha/PCFT assessed as cell growth inhibition measured after 96 hrs in presence of 320 uM AICA by Cell-Titer Blue fluorescence analysis
# Assay type: cell-based
# Settings: not given
# Chain of Bifunctional purine biosynthesis protein ATIC (Homo sapiens) (P31939 whole entry, looked up): as the sequence (P31939 whole entry, looked up, one chain of several) above
row,SMILES,inhibition
1,CC(=O)N(CCc1cc2c(=O)[nH]c(N)nc2[nH]1)c1ccc(C(=O)N[C@@H](CCC(=O)O)C(=O)O)cc1,Active
2,Nc1nc2[nH]c(CCSc3ccc(C(=O)N[C@@H](CCC(=O)O)C(=O)O)cc3)cc2c(=O)[nH]1,Active
3,Nc1nc2[nH]c(CCN(C=O)c3ccc(C(=O)N[C@@H](CCC(=O)O)C(=O)O)cc3)cc2c(=O)[nH]1,Active

# Biological target: T4, Trifunctional purine biosynthetic protein adenosine-3
# Assay: Inhibition of recombinant N-terminal 6His-tagged human GARFTase assessed as formation of 5,8-dideazafolate from 10-formyl-5,8-dideazafolic acid measured at every 15 seconds over 20 min by spectrophotometric analysis
# Settings: not given
row,SMILES,Ki [nM]
1,CC(=O)N(CCc1cc2c(=O)[nH]c(N)nc2[nH]1)c1ccc(C(=O)N[C@@H](CCC(=O)O)C(=O)O)cc1,62
2,Nc1nc2[nH]c(CCSc3ccc(C(=O)N[C@@H](CCC(=O)O)C(=O)O)cc3)cc2c(=O)[nH]1,201
3,Nc1nc2[nH]c(CCN(C=O)c3ccc(C(=O)N[C@@H](CCC(=O)O)C(=O)O)cc3)cc2c(=O)[nH]1,99

# Biological target: T2, Proton-coupled folate transporter (Homo sapiens)
# Assay: Inhibition of [3H]MTX uptake at human PCFT expressed in Chinese hamster R2/PCFT4 cells at 10 uM and pH 5.5 measured after 5 mins
# Assay type: cell-based
# Settings: not given
row,SMILES,inhibition [%]
1,CC(=O)N(CCc1cc2c(=O)[nH]c(N)nc2[nH]1)c1ccc(C(=O)N[C@@H](CCC(=O)O)C(=O)O)cc1,80 to 90
2,Nc1nc2[nH]c(CCSc3ccc(C(=O)N[C@@H](CCC(=O)O)C(=O)O)cc3)cc2c(=O)[nH]1,80 to 90
3,Nc1nc2[nH]c(CCN(C=O)c3ccc(C(=O)N[C@@H](CCC(=O)O)C(=O)O)cc3)cc2c(=O)[nH]1,80 to 90

# Biological target: T1, GAR transformylase/AICAR transformylase (Homo sapiens)
# Assay: Inhibition of GARFTase/AICARFTase in human KB cells expressing RFC/FR-alpha/PCFT assessed as cell growth inhibition measured after 96 hrs in presence of 60 uM adenosine by Cell-Titer Blue fluorescence analysis
# Assay type: cell-based
# Settings: not given
row,SMILES,inhibition
1,CC(=O)N(CCc1cc2c(=O)[nH]c(N)nc2[nH]1)c1ccc(C(=O)N[C@@H](CCC(=O)O)C(=O)O)cc1,inactive
2,Nc1nc2[nH]c(CCSc3ccc(C(=O)N[C@@H](CCC(=O)O)C(=O)O)cc3)cc2c(=O)[nH]1,inactive
3,Nc1nc2[nH]c(CCN(C=O)c3ccc(C(=O)N[C@@H](CCC(=O)O)C(=O)O)cc3)cc2c(=O)[nH]1,inactive
